Source: ChEMBL document CHEMBL3046330, “Synthesis and biological activity of hydrazidehydrazones and their corresponding 3-acetyl-2,5-disubstituted-2,3-dihydro-1,3,4-oxadiazoles” (Med Chem Res, 2012)
Converted amounts (≈) assume the structure as drawn. The source made the active and inactive calls. No cut-off for these calls is given here.

Tests used:
[1] = target: T1, Nitric oxide synthase, inducible (Mus musculus) (UniProt P29477); test: Inhibition of iNOS in Mus musculus (mouse) RAW264.7 cells assessed as inhibition of LPS-induced nitrite production up to 25 ug/ml incubated for 30 min prior to LPS challenge measured after 24 hr by Griess assay relative to vehicle-treated control; type: cell-based
T1 sequence (whole entry): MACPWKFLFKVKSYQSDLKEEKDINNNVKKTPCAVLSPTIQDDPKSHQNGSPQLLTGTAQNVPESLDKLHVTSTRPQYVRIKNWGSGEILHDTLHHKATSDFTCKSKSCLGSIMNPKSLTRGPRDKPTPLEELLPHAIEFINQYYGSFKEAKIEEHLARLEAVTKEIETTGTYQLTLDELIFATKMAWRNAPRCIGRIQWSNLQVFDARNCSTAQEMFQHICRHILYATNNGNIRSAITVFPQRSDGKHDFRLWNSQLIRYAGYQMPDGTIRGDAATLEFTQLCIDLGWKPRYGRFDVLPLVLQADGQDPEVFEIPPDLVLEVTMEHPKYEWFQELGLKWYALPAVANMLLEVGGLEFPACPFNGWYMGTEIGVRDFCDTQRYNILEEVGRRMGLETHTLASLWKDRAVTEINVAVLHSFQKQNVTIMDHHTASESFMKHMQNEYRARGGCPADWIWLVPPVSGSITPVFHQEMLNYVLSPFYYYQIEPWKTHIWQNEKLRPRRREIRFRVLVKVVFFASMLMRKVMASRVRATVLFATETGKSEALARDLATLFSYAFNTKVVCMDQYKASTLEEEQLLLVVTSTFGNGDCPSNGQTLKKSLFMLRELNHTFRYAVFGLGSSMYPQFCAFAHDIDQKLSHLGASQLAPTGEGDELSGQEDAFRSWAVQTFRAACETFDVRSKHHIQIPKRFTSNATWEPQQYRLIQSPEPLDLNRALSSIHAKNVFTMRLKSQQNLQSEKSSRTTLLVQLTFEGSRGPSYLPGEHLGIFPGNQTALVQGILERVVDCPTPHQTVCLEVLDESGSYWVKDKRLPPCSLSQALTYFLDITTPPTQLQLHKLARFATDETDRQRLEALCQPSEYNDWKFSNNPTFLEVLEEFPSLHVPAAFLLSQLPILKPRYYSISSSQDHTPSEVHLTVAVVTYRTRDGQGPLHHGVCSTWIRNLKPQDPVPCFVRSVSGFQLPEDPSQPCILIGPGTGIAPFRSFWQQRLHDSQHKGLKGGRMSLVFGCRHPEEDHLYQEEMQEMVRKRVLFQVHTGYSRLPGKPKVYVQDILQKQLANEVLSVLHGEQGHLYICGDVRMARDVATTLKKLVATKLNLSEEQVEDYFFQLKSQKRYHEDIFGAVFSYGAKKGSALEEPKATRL

[2] = test system: RAW264.7; test: Cytotoxicity against Mus musculus (mouse) RAW264.7 cells up to 25 ug/ml; type: cell-based
[3] = test system: HL-60; test: Antioxidant activity in PMA-stimulated Homo sapiens (human) HL60 cells assessed as inhibition of intracellular ROS generation up to 25 ug/ml incubated for 30 min prior to PMA stimulation measured after 30 min by DCFH-DA assay relative to vehicle-treated control; type: functional, cell-based
[4] = test system: HL-60; test: Cytotoxicity against Homo sapiens (human) HL60 cells up to 25 ug/ml; type: cell-based
[5] = test system: Vero; test: Cytotoxicity against Chlorocebus aethiops (African green monkey) Vero cells assessed as cell viability up to 25 ug/ml after 48 hr by neutral red assay; type: cell-based; settings: chlorocebus sabaeus
[6] = Cytotoxicity against Sus scrofa (pig) LLC-PK11 cells assessed as cell viability up to 25 ug/ml after 48 hr by neutral red assay; type: cell-based; settings: llc-pk11, 48 h
[7] = test system: SK-MEL; test: Cytotoxicity against Homo sapiens (human) SK-MEL cells assessed as cell viability up to 25 ug/ml after 48 hr by neutral red assay; type: functional, cell-based
[8] = test system: KB; test: Cytotoxicity against Homo sapiens (human) KB cells assessed as cell viability up to 25 ug/ml after 48 hr by neutral red assay; type: functional, cell-based
[9] = test system: BT-549; test: Cytotoxicity against Homo sapiens (human) BT549 cells assessed as cell viability up to 25 ug/ml after 48 hr by neutral red assay; type: functional, cell-based
[10] = test system: Colletotrichum fragariae; test: Antifungal activity against Colletotrichum fragariae at 0.3 to 30 uM after 48 to 72 hr by broth microdilution method; type: functional, organism-based
[11] = test system: Fusarium oxysporum; test: Antifungal activity against Fusarium oxysporum assessed as growth inhibition at 30 uM after 72 hr by broth microdilution method; type: functional; settings: read-out: GI
[12] = test system: Colletotrichum gloeosporioides; test: Antifungal activity against Colletotrichum gloeosporioides assessed as growth inhibition at 30 uM after 72 hr by broth microdilution method; type: functional; settings: read-out: GI
[13] = test system: Candida albicans; test: Antifungal activity against Candida albicans NRRL Y-12983 after 24 hr by NCCLS broth microdilution method; type: functional; settings: NRRL Y-12983, 24 h
[14] = test system: Nakaseomyces glabratus; test: Antifungal activity against Candida glabrata clinical isolate after 24 hr by NCCLS broth microdilution method; type: functional
[15] = test system: Candida parapsilosis; test: Antifungal activity against Candida parapsilosis NRRL Y-12696 after 24 hr by NCCLS broth microdilution method; type: functional; settings: Lodderomyces parapsilosis, NRRL Y-12696, 24 h
[16] = test system: Pichia kudriavzevii; test: Antifungal activity against Pichia kudriavzevii NRRL Y-7179 after 24 hr by NCCLS broth microdilution method; type: functional; settings: NRRL Y-7179, 24 h
[17] = test system: Cyberlindnera jadinii; test: Antifungal activity against Cyberlindnera jadinii NRRL Y-900 after 24 hr by NCCLS broth microdilution method; type: functional; settings: Williopsis jadinii, NRRL Y-900, 24 h
[18] = test system: Botrytis cinerea; test: Antifungal activity against Botryotinia fuckeliana at 0.3 to 30 uM after 48 to 72 hr by broth microdilution method; type: functional, organism-based
[19] = test system: Candida albicans; test: Antifungal activity against Candida albicans ATCC 90028 after 24 hr by NCCLS broth microdilution method; type: functional; settings: ATCC 90028, 24 h
[20] = test system: Candida albicans; test: Antifungal activity against Candida albicans clinical isolate after 24 hr by NCCLS broth microdilution method; type: functional
[21] = test system: Candida tropicalis; test: Antifungal activity against Candida tropicalis NRRL Y-12968 at 2000 ug/ml by agar diffusion method; type: functional; settings: read-out: IZ
[22] = test system: Candida albicans; test: Antifungal activity against Candida albicans clinical isolate at 2000 ug/ml by agar diffusion method; type: functional; settings: read-out: IZ
[23] = target: Transcription factor Sp1 (Homo sapiens, UniProt P08047); test: Inhibition of Sp1 (unknown origin) up to 25 ug/ml by luciferase reporter gene assay
Sequence of Transcription factor Sp1 (P08047 whole entry): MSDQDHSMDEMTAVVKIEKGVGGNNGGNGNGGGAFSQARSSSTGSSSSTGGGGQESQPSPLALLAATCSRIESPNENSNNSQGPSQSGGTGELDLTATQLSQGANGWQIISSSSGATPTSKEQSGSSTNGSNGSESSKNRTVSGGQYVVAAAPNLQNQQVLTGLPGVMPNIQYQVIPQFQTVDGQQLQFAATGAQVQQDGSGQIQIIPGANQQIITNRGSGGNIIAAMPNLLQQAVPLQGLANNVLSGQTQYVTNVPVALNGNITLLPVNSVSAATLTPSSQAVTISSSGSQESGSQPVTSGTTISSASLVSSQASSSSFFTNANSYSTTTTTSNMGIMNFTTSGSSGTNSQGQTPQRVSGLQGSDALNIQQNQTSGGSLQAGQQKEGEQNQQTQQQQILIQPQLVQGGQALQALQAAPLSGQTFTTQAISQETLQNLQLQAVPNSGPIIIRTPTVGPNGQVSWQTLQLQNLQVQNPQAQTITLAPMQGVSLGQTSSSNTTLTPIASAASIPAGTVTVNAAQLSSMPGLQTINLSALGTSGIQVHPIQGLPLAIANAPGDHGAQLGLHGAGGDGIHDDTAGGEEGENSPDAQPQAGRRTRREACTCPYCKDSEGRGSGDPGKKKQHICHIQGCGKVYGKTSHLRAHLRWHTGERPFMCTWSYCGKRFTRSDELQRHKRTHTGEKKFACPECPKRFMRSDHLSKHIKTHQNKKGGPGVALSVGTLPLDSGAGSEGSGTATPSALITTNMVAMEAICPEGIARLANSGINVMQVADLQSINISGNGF

[24] = test system: SW1353; test: Inhibition of PMA-induced NFkappaB activity in Homo sapiens (human) SW1353 cells up to 25 ug/ml incubated for 30 min followed by PMA induction for 8 hr by luciferase reporter gene assay; type: cell-based
[25] = test system: SK-OV-3; test: Cytotoxicity against Homo sapiens (human) SKOV3 cells assessed as cell viability up to 25 ug/ml after 48 hr by neutral red assay; type: functional, cell-based
[26] = test system: HL-60; test: Cytotoxicity against Homo sapiens (human) HL60 cells; type: cell-based
[27] = test system: Diaporthe ampelina; test: Antifungal activity against Diaporthe ampelina assessed as growth inhibition at 30 uM after 144 hr by broth microdilution method; type: functional; settings: read-out: GI
[28] = test system: Candida tropicalis; test: Antifungal activity against Candida tropicalis NRRL Y-12968 after 24 hr by NCCLS broth microdilution method; type: functional; settings: NRRL Y-12968, 24 h
[29] = target: T2, Nitric oxide synthase, inducible (Mus musculus, UniProt P29477); test: Inhibition of iNOS in Mus musculus (mouse) RAW264.7 cells assessed as inhibition of LPS-induced nitrite production incubated for 30 min prior to LPS challenge measured after 24 hr by Griess assay; type: cell-based
T2 sequence (P29477 whole entry): T1 sequence (whole entry)

[30] = test system: RAW264.7; test: Cytotoxicity against Mus musculus (mouse) RAW264.7 cells; type: cell-based
[31] = Inhibition of PMA-induced NFkappaB activity in Homo sapiens (human) SW1353 cells incubated for 30 min followed by PMA induction for 8 hr by luciferase reporter gene assay; type: cell-based
[32] = test system: HL-60; test: Antioxidant activity in PMA-stimulated Homo sapiens (human) HL60 cells assessed as inhibition of intracellular ROS generation incubated for 30 min prior to PMA stimulation measured after 30 min by DCFH-DA assay; type: functional, cell-based

| Compound | Activity [2] | inhibition [3] | Activity [5] | Activity [6] | Activity [7] | Activity [8] | Activity [9] | Activity [10] | MIC [13] [µg/mL] | MIC [14] [µg/mL] | MIC [15] [µg/mL] | MIC [16] [µg/mL] | MIC [17] [µg/mL] | Activity [18] | MIC [19] [µg/mL] | zone of inhibition at 2000 µg/mL [21] [mm] | zone of inhibition at 2000 µg/mL [22] [mm] | inhibition (INH) [23] | Activity [25] | IC50 [29] [µM] | further results |
| --- | --- | --- | --- | --- | --- | --- | --- | --- | --- | --- | --- | --- | --- | --- | --- | --- | --- | --- | --- | --- | --- |
| O=C(N/N=C/c1ccc(Br)cc1)c1ccc(F)cc1 | Non-toxic | inactive | Not Active | Not Active | inactive | inactive | inactive | inactive | 500 (≈ 1560 µM) | 250 (≈ 778 µM) | 1000 (≈ 3110 µM) | 500 (≈ 1560 µM) | 1000 (≈ 3110 µM) | inactive | 500 (≈ 1560 µM) | 9 | 9 | Not Active | inactive | – | inhibition [1]: inactive; Activity [4]: Non-toxic; inhibition of growth at 30 µM [11]: 35%; inhibition of growth at 30 µM [12]: 22%; MIC [20]: 500 µg/mL (≈ 1560 µM); inhibition [24]: inactive |
| O=C(N/N=C/c1ccc(Br)s1)c1ccc(F)cc1 | Non-toxic | inactive | Not Active | Not Active | inactive | inactive | inactive | inactive | 125 (≈ 382 µM) | 250 (≈ 764 µM) | 250 (≈ 764 µM) | 250 (≈ 764 µM) | 250 (≈ 764 µM) | inactive | 250 (≈ 764 µM) | 9 | 9 | Not Active | inactive | > 76.4 | IC50 [26]: 16 µg/mL (≈ 48.9 µM); inhibition of growth at 30 µM [27]: 91%; inhibition of growth at 30 µM [11]: 40%; inhibition of growth at 30 µM [12]: 32%; MIC [28]: 250 µg/mL (≈ 764 µM); MIC [20]: 250 µg/mL (≈ 764 µM); inhibition [24]: inactive |
| C=C1C(=O)O[C@@H]2C3O[C@]3(C)CC/C=C(\C)CC[C@@H]12 (stereo not given in full) | – | – | – | – | – | – | – | – | – | – | – | – | – | – | – | – | – | – | – | 1.61 | IC50 [30]: 13 µg/mL (≈ 52.4 µM); IC50 [31]: 0.68 µg/mL (≈ 2.74 µM) |
| O=C(N/N=C/c1ccc(O)cc1)c1ccc(F)cc1 | – | inactive | Not Active | Not Active | inactive | inactive | inactive | – | 500 (≈ 1940 µM) | – | 500 (≈ 1940 µM) | 500 (≈ 1940 µM) | 500 (≈ 1940 µM) | – | 500 (≈ 1940 µM) | 9 | 9 | Not Active | inactive | > 96.8 | inhibition [1]: inactive; IC50 [30]: > 25 µg/mL; Activity [4]: Non-toxic; MIC [28]: 500 µg/mL (≈ 1940 µM); inhibition [24]: inactive |
| COc1ccc(C2OC(c3ccc(F)cc3)=NN2C(C)=O)cc1O (stereo not given) | Non-toxic | – | Not Active | Not Active | inactive | inactive | inactive | inactive | 500 (≈ 1510 µM) | 250 (≈ 757 µM) | 500 (≈ 1510 µM) | 500 (≈ 1510 µM) | 250 (≈ 757 µM) | inactive | 500 (≈ 1510 µM) | 9 | 9 | Not Active | inactive | 12.1 | IC50 [32]: 0.9 µg/mL (≈ 2.72 µM); IC50 [26]: 20 µg/mL (≈ 60.5 µM); MIC [28]: 500 µg/mL (≈ 1510 µM); MIC [20]: 250 µg/mL (≈ 757 µM); IC50 [31]: 0.75 µg/mL (≈ 2.27 µM) |
